In ChEMBL document CHEMBL4028808, “Design and synthesis of selective CDK8/19 dual inhibitors: Discovery of 4,5-dihydrothieno[3',4':3,4]benzo[1,2-d]isothiazole derivatives” (Bioorg Med Chem, 2017):
Values after ≈ are worked out from the molar mass of the structure shown.

Assays:
CDK8/Cyclin C [1] = biological target: T1, CDK8/Cyclin C (Homo sapiens, UniProt P49336); assay: Inhibition of kinase tracer-236 binding to GST-tagged CDK8/CyclinC (unknown origin) after 60 mins by TR-FRET assay; type: protein-complex assay
[2] = biological target: Cyclin-C/Cyclin-dependent kinase 19 (Homo sapiens, UniProt Q9BWU1); assay: Inhibition of kinase tracer-236 binding to GST-tagged CDK19/CyclinC (unknown origin) after 60 mins by TR-FRET assay; type: protein-complex assay
[3] = biological target: Cyclin-dependent kinase 8 (Homo sapiens, UniProt P49336); assay: Inhibition of CDK8 in human SW480 cells assessed as decrease in STAT1 phosphorylation at Ser727 after 2 hrs by Western blot method
[4] = Intrinsic clearance in human liver microsomes at 1 umol/l after 15 to 30 mins in presence of NADPH by LC-MS/MS analysis; type: ADME, microsome; conditions: read-out: CLH
[5] = Aqueous solubility of the compound in DMSO at pH 6.8 by HPLC method; type: physicochemical
CDK8/Cyclin C [6] = biological target: T1, CDK8/Cyclin C; assay: Inhibition of full length recombinant human His-tagged CDK8/Cyclin C expressed in baculovirus expression system using Ulight-GS peptide as substrate measured after 30 mins by TR-FRET based LANCE assay

Chain of Cyclin-C/Cyclin-dependent kinase 19 (Q9BWU1 whole entry): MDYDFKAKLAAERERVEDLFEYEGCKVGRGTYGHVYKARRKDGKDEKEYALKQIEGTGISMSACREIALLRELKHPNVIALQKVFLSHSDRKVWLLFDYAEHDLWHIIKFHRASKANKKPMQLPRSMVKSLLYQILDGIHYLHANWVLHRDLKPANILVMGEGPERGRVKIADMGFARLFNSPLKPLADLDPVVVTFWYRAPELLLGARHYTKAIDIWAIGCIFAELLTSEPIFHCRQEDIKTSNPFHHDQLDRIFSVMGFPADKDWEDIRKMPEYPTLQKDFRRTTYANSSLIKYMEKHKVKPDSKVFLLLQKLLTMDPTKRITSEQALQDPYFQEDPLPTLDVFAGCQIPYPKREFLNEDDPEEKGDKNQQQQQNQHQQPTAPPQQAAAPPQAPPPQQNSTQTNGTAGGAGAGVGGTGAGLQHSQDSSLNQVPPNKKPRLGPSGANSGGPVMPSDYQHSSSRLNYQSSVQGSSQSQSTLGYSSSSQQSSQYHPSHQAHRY
Chain of Cyclin-C/Cyclin-dependent kinase 19 (P24863 whole entry, further chain): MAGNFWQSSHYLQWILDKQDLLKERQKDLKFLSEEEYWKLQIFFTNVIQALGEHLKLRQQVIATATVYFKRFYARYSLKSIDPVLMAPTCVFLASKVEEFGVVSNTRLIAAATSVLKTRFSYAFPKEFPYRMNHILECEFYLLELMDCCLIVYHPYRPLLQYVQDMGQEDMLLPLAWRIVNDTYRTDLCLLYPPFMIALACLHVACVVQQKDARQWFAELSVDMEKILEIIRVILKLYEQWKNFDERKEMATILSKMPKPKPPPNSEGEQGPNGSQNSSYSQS
T1 sequence (P49336 whole entry): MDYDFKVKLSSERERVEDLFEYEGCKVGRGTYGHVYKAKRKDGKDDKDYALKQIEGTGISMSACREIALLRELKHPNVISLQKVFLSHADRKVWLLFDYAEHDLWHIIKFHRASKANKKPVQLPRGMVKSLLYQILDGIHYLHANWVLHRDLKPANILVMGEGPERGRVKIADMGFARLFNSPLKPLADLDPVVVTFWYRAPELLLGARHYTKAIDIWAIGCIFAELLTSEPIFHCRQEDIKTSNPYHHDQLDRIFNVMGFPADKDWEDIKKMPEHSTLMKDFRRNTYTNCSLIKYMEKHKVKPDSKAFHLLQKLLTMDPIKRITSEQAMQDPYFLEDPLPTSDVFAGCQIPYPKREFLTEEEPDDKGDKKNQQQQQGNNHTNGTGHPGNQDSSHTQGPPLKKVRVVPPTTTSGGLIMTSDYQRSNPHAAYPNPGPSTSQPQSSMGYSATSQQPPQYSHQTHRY
T1 sequence (P24863 whole entry, further chain): as the sequence (P24863 whole entry, further chain) above
Chain of Cyclin-dependent kinase 8 (P49336 whole entry): as the sequence (P49336 whole entry) above

| Structure (SMILES) | IC50 (CDK8/Cyclin C [1]) | IC50 [2] | EC50 [3] | microsomal CLint at 1 µM [4] | solubility [5] | IC50 (CDK8/Cyclin C [6]) |
| --- | --- | --- | --- | --- | --- | --- |
| CSc1sc(C(=O)N(C)C)c2c1-c1sncc1CC2 | 0.068 µM | 0.12 µM | 1.7 µM |  |  |  |
| Cc1ccc(Oc2sc(C(N)=O)c3c2-c2sncc2CC3)cn1 | 0.00099 µM | 0.0013 µM | 0.003 µM | 75 µL/min/mg | 23 µg/mL (≈ 67 µM) |  |
| Cc1c(Oc2sc(C(N)=O)c3c2-c2sncc2CC3)ccc[n+]1[O-] | 0.0044 µM | 0.0093 µM | 0.0083 µM |  |  |  |
| CC(=O)Nc1ccc(Oc2sc(C(N)=O)c3c2-c2sncc2CC3)cn1 | 0.00057 µM | 0.00057 µM | 0.0004 µM | 61 µL/min/mg | 0.72 µg/mL (≈ 1.86 µM) |  |
| COc1sc(C(N)=O)c2c1-c1sncc1CC2 | 0.0023 µM | 0.0028 µM | 0.0091 µM |  |  |  |
| CSc1sc(C(=O)Nc2ccon2)c2c1-c1sncc1CC2 | 0.012 µM | 0.015 µM | 0.89 µM |  |  |  |
| OC[C@H](Nc1cncc(-c2ccc(O)c(Cl)c2)n1)c1ccccc1 |  |  |  |  |  | 0.0002 µM |
| CSc1sc(C(=O)Nc2ccccc2)c2c1-c1sncc1CC2 | 0.54 µM | 0.7 µM | > 10 µM |  |  |  |
| C[S+]([O-])c1sc(C(N)=O)c2c1-c1sncc1CC2 (stereo not given) | 0.088 µM | 0.15 µM | 0.07 µM |  |  |  |
| CSc1sc(C(N)=O)c2c1-c1oncc1CC2 | 0.045 µM | 0.071 µM | 0.2 µM |  |  |  |
| CSc1sc(C(=O)Nc2ccn(C)n2)c2c1-c1sncc1CC2 | 0.022 µM | 0.065 µM | 1.4 µM |  |  |  |
| CC(C)(O)CNC(=O)c1ccc(Oc2sc(C(N)=O)c3c2-c2sncc2CC3)cn1 | 0.0024 µM | 0.0024 µM | 0.0074 µM | 21 µL/min/mg | 56 µg/mL (≈ 126 µM) |  |
| NC(=O)c1sc(Oc2cccnc2)c2c1CCc1cnsc1-2 | 0.0015 µM | 0.0027 µM | 0.003 µM | 55 µL/min/mg |  |  |
| NC(=O)c1[nH]cc(-c2ccncc2)c1Cl |  |  |  |  |  | 0.007 µM |
| CCOCCNC(=O)c1ccc(Oc2sc(C(N)=O)c3c2-c2sncc2CC3)cn1 | 0.0011 µM | 0.0019 µM | 0.0015 µM | 73 µL/min/mg | 15 µg/mL (≈ 33.7 µM) |  |
| Cc1ccncc1Oc1sc(C(N)=O)c2c1-c1sncc1CC2 | 0.0047 µM | 0.0066 µM | 0.016 µM | 65 µL/min/mg |  |  |
| NC(=O)c1sc(Oc2ccccn2)c2c1CCc1cnsc1-2 | 0.011 µM | 0.025 µM | 0.066 µM | 101 µL/min/mg |  |  |
| CSc1sc(C#N)c2c1-c1sncc1CC2 | 0.023 µM | 0.046 µM | 0.49 µM |  |  |  |
| CNC(=O)c1ccc(Oc2sc(C(N)=O)c3c2-c2sncc2CC3)cn1 | 0.0019 µM | 0.001 µM | 0.0026 µM | 23 µL/min/mg | 11 µg/mL (≈ 28.5 µM) |  |

| Structure (SMILES) | IC50 (CDK8/Cyclin C [1]) | IC50 [2] | EC50 [3] | microsomal CLint at 1 µM [4] | solubility [5] | IC50 (CDK8/Cyclin C [6]) |
| --- | --- | --- | --- | --- | --- | --- |
| CSc1sc(C(N)=O)c2c1-c1nn(C)cc1CC2 | > 10 µM |  | > 10 µM |  |  |  |
| Cc1ncccc1Oc1sc(C(N)=O)c2c1-c1sncc1CC2 | 0.00047 µM | 0.00077 µM | 0.002 µM | 86 µL/min/mg |  |  |
| CSc1sc(C(N)=O)c2c1-c1snnc1CC2 | 0.06 µM | 0.13 µM | 0.55 µM |  |  |  |
| CNc1ccc(Oc2sc(C(N)=O)c3c2-c2sncc2CC3)cn1 | 0.00059 µM | 0.00036 µM | 0.00058 µM | 127 µL/min/mg | 4 µg/mL (≈ 11.2 µM) |  |
| NC(=O)c1sc(Oc2ccc(N)nc2)c2c1CCc1cnsc1-2 | 0.0006 µM | 0.0011 µM | 0.0023 µM | 30 µL/min/mg | 4.5 µg/mL (≈ 13.1 µM) |  |
| NC(=O)c1sc(Oc2ccccc2)c2c1CCc1cnsc1-2 | 0.00034 µM | 0.00055 µM | 0.00077 µM | 193 µL/min/mg |  |  |
| CSc1sc(C(N)=O)c2c1-c1c(cnn1C)CC2 | 0.018 µM | 0.019 µM | 0.025 µM |  |  |  |
| CSc1sc(C(=O)Nc2ccccn2)c2c1-c1sncc1CC2 | 0.18 µM | 0.4 µM | 2.8 µM |  |  |  |
| CN(C)C(=O)c1ccc(Oc2sc(C(N)=O)c3c2-c2sncc2CC3)cn1 | 0.023 µM | 0.021 µM | 0.021 µM | 36 µL/min/mg | 65 µg/mL (≈ 162 µM) |  |
| CSc1sc(C(=O)O)c2c1-c1sncc1CC2 | 0.0095 µM | 0.012 µM | > 10 µM |  |  |  |
| Cc1cncc(Oc2sc(C(N)=O)c3c2-c2sncc2CC3)c1 | 0.0051 µM | 0.0092 µM | 0.028 µM | 188 µL/min/mg |  |  |
| CNC(=O)c1sc(SC)c2c1CCc1cnsc1-2 | 0.0093 µM | 0.022 µM | 0.14 µM |  |  |  |
| COCCNC(=O)c1ccc(Oc2sc(C(N)=O)c3c2-c2sncc2CC3)c(C)n1 | 0.0014 µM | 0.0013 µM | 0.00035 µM | 71 µL/min/mg | 6.7 µg/mL (≈ 15.1 µM) |  |
| OC[C@H](Nc1cncc(-c2ccc3[nH]ncc3c2)c1)c1ccccc1 |  |  |  |  |  | 0.0004 µM |
| NC(=O)c1ccc(Oc2sc(C(N)=O)c3c2-c2sncc2CC3)cn1 | 0.00093 µM | 0.00097 µM | 0.0014 µM | 19 µL/min/mg | 4.1 µg/mL (≈ 11 µM) |  |
| CS(=O)(=O)c1sc(C(N)=O)c2c1-c1sncc1CC2 | 0.063 µM | 0.11 µM | 0.22 µM |  |  |  |
| CSc1sc(C(N)=O)c2c1-c1[nH]ncc1CC2 | 1.7 µM | 3.1 µM | 1.3 µM |  |  |  |
| CSc1sc(C(=O)Nc2ccsn2)c2c1-c1sncc1CC2 | 0.066 µM | 0.093 µM | 0.62 µM |  |  |  |
